{"source": "paper PMC7417534", "about": "“Cytochrome P450 inhibition potential and initial genotoxic evaluation of 14-O-[(4,6-diaminopyrimidine-2-yl)thioacetyl] mutilin” (Scientific Reports, 2020)", "key": {"CYP1A2": {"target": "T1, CYP1A2 (Homo sapiens, UniProt P05177)", "T1 construct": "containing 100 μL RLMs or HLMs; tissue Research Institute for Liver Diseases (Shanghai) Co., Ltd; host or cells: pooled human liver microsomes", "T1 sequence (P05177 whole entry)": "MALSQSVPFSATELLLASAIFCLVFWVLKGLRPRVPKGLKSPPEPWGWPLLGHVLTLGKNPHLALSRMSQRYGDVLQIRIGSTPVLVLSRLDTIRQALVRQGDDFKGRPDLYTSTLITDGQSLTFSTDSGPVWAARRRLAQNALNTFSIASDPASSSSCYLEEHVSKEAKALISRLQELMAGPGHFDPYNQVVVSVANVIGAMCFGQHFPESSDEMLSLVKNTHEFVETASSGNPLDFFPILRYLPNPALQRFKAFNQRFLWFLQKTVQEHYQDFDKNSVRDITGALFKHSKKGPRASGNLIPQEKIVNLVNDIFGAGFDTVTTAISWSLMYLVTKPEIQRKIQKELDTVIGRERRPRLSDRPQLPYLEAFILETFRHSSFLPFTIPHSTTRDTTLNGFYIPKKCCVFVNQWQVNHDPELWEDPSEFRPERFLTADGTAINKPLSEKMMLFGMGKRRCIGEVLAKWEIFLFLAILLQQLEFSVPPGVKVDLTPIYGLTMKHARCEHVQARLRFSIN", "experiment": "Cocktail CYP inhibition in human liver microsomes, CYP1A2 (phenacetin)", "format": "in vitro ADME", "details": "cocktail method, read-out: IC50 values, CYP1A2 in HLMs", "protocol": "(§1) We used the cocktail method to study the inhibition activities of DPTM against CYP enzymes in RLMs and HLMs with slight modification. DPTM (250 μmol) was dissolved in 1.25 mL methanol to a solution and then diluted with methanol and water to 2, 10, 20, 100, 200, 400, 1,000 and 2000 μM, respectively. The obtained serial dilutions (10 μL) were added to the incubation mixtures (200 μL total volume), containing 100 μL RLMs or HLMs (final concentration was 5 μg/μL, respectively), 10 μL glucose-6-phosphate (final concentration was 1 mM), 10 μL glucose-6-phosphate dehydrogenase (final concentration was 0.1 U/L), 20 μL potassium phosphate buffer (final concentration was 0.01 M) and 20 μL MgCl2 (final concentration was 2 mM), to give the final concentrations were 0.1, 0.5, 1, 5 10, 20, 50, and 100 μM, respectively. For the groups that in the absence of DPTM, 10 μL methanol (1%) replaced the DPTM and was added to the incubation mixtures. […] The final concentration of methanol in all the incubation mixtures, including the blank group, was […]. […] The determined metabolic substrates were used for calculating the relative enzyme activity (Erel) by the following formula: Erel (%) = Ci(n)/Ci(0) × 100%, in which Ci(n) was the determined metabolic substrates in the presence of varying concentrations of DPTM and Ci(0) was the determined metabolic substrates in the absence of DPTM. […]"}, "AhR mRNA": {"system": "AhR mRNA", "experiment": "AhR mRNA expression in Hep G2 cells (real-time PCR)", "format": "cell-based, human", "protocol": "(§2) The logarithmic growth phase Hep G2 cells were seeded into 12-well plastic plates at a density of […]. After incubation at 37 °C under 5% CO2 for 24 h, the media were then replaced with 1 mL of serial dilutions of the DPTM (4.98, 0.16 and 0.08 mM) in fresh media. When cells were incubated for 2, 4 and 12 h at 37 °C under 5% CO2, the RNA was isolated using the Trizol reagent according to the manufacturer’s protocol. Total RNA (5 μL) was transcribed into cDNA by using the PrimeScript RT reagent Kit (Perfect Real Time). The obtained cDNA (5 μL) was added for 45 cycles of PCR amplification to detect the mRNA expression (the primers and sequences used herein were given in Table 3) using the ABI Villa TM7Dx real-time PCR system (Gaithersburg, USA). Glyceraldehyde-3-phosphate dehydrogenase (GAPDH) was used as reference gene. All reactions were performed in a final volume of 20 μL (10 μL of 2 × SYBR Green Real-time PCR Master Mix, 2 μL of cDNA and 2 μL of the primers and 6 μL DEPC water) and executed in triplicate."}, "CYP2D1": {"target": "T2, CYP2D1 (Rattus norvegicus, UniProt P10633)", "T2 construct": "containing 100 μL RLMs or HLMs; tissue Research Institute for Liver Diseases (Shanghai) Co., Ltd; host or cells: male SD rat liver microsomes", "T2 sequence (P10633 whole entry)": "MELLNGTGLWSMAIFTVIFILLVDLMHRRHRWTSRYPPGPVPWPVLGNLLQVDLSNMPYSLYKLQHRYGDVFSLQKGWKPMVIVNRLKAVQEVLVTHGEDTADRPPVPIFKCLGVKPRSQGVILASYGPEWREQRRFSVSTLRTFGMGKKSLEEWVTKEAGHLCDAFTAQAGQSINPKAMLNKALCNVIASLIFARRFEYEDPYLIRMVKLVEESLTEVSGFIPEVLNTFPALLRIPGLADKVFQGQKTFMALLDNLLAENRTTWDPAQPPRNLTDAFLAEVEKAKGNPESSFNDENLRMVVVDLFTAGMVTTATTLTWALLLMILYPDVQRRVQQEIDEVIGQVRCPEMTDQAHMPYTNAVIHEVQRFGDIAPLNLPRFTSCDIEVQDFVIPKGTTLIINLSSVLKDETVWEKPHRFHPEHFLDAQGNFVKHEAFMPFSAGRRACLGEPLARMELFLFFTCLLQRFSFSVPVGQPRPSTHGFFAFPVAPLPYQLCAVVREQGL", "experiment": "Cocktail CYP inhibition in rat liver microsomes, CYP2D1 (metoprolol)", "format": "in vitro ADME", "details": "cocktail method, read-out: IC50 values, CYP2D1 in RLMs", "protocol": "as §1"}, "CYP3A4 mRNA": {"system": "CYP3A4 mRNA", "experiment": "CYP3A4 mRNA expression in Hep G2 cells (real-time PCR)", "format": "cell-based, human", "details": "2 and 4 h, 4.98, 0.16 and 0.08 mM", "protocol": "as §2"}, "CYP3A4": {"target": "T3, CYP3A4 (Homo sapiens, UniProt P08684)", "T3 construct": "containing 100 μL RLMs or HLMs; tissue Research Institute for Liver Diseases (Shanghai) Co., Ltd; host or cells: pooled human liver microsomes", "T3 sequence (P08684 whole entry)": "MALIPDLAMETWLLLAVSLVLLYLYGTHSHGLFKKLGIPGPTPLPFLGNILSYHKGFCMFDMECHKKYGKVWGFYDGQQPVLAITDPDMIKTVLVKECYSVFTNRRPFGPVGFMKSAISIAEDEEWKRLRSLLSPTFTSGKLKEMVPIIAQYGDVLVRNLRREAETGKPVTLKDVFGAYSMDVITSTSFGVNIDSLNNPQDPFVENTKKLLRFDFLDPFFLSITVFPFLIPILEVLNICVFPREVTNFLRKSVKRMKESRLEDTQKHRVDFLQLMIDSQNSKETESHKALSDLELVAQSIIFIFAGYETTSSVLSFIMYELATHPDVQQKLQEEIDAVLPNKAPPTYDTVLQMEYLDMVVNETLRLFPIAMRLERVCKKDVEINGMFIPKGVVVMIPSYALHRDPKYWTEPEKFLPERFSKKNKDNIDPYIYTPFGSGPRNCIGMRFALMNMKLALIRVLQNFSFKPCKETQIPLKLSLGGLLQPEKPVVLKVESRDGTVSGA", "experiment": "Cocktail CYP inhibition in human liver microsomes, CYP3A4 (dapsone)", "format": "in vitro ADME", "details": "cocktail method, read-out: IC50 values, CYP3A4 in HLMs", "protocol": "as §1"}, "CYP2C9": {"target": "T4, CYP2C9 (Homo sapiens, UniProt P11712)", "T4 construct": "containing 100 μL RLMs or HLMs; tissue Research Institute for Liver Diseases (Shanghai) Co., Ltd; host or cells: pooled human liver microsomes", "T4 sequence (P11712 whole entry)": "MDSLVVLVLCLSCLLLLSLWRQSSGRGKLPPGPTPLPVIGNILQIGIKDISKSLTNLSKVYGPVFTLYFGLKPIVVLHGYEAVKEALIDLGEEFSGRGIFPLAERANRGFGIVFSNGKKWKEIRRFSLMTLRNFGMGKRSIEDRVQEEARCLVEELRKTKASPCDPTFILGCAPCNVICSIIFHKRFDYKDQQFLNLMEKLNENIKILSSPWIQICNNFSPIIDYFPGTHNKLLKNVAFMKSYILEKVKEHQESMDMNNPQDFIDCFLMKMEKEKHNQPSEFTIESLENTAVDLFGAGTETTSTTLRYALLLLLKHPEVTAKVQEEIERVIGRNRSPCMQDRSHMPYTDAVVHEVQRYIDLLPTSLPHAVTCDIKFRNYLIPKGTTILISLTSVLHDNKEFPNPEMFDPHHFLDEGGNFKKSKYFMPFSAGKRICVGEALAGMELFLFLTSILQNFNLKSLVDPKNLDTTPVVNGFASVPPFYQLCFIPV", "experiment": "Cocktail CYP inhibition in human liver microsomes, CYP2C9 (tolbutamide)", "format": "in vitro ADME", "details": "cocktail method, read-out: IC50 values, CYP2C9 in HLMs", "protocol": "as §1"}, "[1]": {"system": "S. typhimurium strains TA97, TA98, TA100, TA102 and TA1535", "experiment": "Ames test, overall verdict over five strains", "format": "cell-based, Salmonella typhimurium", "details": "with or without S9, up to 3.98 μmol/plate", "description": "(§3) S. typhimurium strains TA97, TA98, TA100, TA102 and TA1535 were stored and maintained as provided in the standard protocol. Each of the strains was checked for their genetic integrity prior to the experiment, and tested for biotin dependence, histidine dependence, biotin and histidine dependence, rfa marker (crystal violet) and presence of the plasmid pKM101 (ampicillin resistance) or pAQ1 (tetracycline resistance). Different strains were used to identify different types of mutations.\n(§4) The test was carried out at five different concentrations of DPTM. […] Then 1 mL solution was diluted with distilled water by two fold. […] The negative control used in this experiment was 1 mL DMSO which was directly incorporated into 9 mL melted top agar.\nThe Ames test of DPTM was conducted as described in the literatures[42],[43] with some modifications. Briefly, 1 mL of strain was inoculated into 5 mL of nutrient broth, followed by incubating overnight at 37 °C. The mixture comprised respective strains, drug, negative and positive controls with the S9 for testing in the presence of metabolic activation system. For testing without S9, 1 × phosphate buffer saline (PBS, pH 7.4) replaced the S9 mix. The obtained mixtures were added into the tube, mixed well and incubated at 37 °C for 20 min. […] The results were expressed as the number of revertant colonies per plate. […]"}, "S. typhimurium TA98": {"system": "S. typhimurium TA98", "experiment": "Ames test, strain TA98", "format": "cell-based, Salmonella typhimurium", "details": "− S9", "description": "as §3, §4\n(§5) The Ames test of DPTM was conducted as described in the literatures[42],[43] with some modifications. Briefly, 1 mL of strain was inoculated into 5 mL of nutrient broth, followed by incubating overnight at 37 °C. The mixture comprised respective strains, drug, negative and positive controls with the S9 for testing in the presence of metabolic activation system. For testing without S9, 1 × phosphate buffer saline (PBS, pH 7.4) replaced the S9 mix. The obtained mixtures were added into the tube, mixed well and incubated at 37 °C for 20 min. Then, the top agar was melted and 2 mL of this melted top agar was added to each tube and gently mixed. […] The results were expressed as the number of revertant colonies per plate. The experiments were performed in triplicate."}, "S. typhimurium TA102": {"system": "S. typhimurium TA102", "details": "− S9", "description": "as §3\nThe test was carried out at five different concentrations of DPTM. […] Then 1 mL solution was diluted with distilled water by two fold.\nas §5"}, "CYP2E1 mRNA": {"system": "CYP2E1 mRNA", "experiment": "CYP2E1 mRNA expression in Hep G2 cells (real-time PCR)", "format": "cell-based, human", "protocol": "as §2"}}, "note": "Like-named read-outs stand apart in the source and are kept apart here."}
{"smiles": "C=CC1(C)CC(OC(=O)CSc2nc(N)cc(N)n2)C2(C)C(C)CCC3(CCC(=O)C32)C(C)C1O", "note": "(centres unmarked) [DPTM, 14-O-[(4,6-Diaminopyrimidine-2-yl)thioacetyl] mutilin]", "values": [{"measurement": "IC50", "setting": "CYP1A2", "result": "> 100", "unit": "µM"}, {"measurement": "AhR mRNA content versus control", "setting": "AhR mRNA; 2 and 4 h, 4.98, 0.16 and 0.08 mM", "result": "significantly increased"}, {"measurement": "AhR mRNA content versus control", "setting": "AhR mRNA; 12 h", "result": "no effect"}, {"measurement": "IC50", "setting": "CYP2D1", "result": "> 100", "unit": "µM"}, {"measurement": "CYP3A4 mRNA expression versus control", "setting": "CYP3A4 mRNA", "result": "significantly increase"}, {"measurement": "IC50", "setting": "CYP3A4", "result": "8 ± 2", "unit": "µM"}, {"measurement": "IC50", "setting": "CYP2C9", "result": "> 100", "unit": "µM"}, {"measurement": "mutagenicity verdict (Ames test)", "setting": "[1]", "result": "should not be considered as a mutagen"}, {"measurement": "revertant colonies per plate, TA98", "setting": "S. typhimurium TA98; dose 0.25 μmol/plate", "result": "33 ± 6", "unit": "CFU"}, {"measurement": "revertant colonies per plate, TA98", "setting": "S. typhimurium TA98; dose 0.50 μmol/plate", "result": "30 ± 10", "unit": "CFU"}, {"measurement": "revertant colonies per plate, TA98", "setting": "S. typhimurium TA98; dose 1.00 μmol/plate", "result": "27 ± 8", "unit": "CFU"}, {"measurement": "revertant colonies per plate, TA98", "setting": "S. typhimurium TA98; dose 1.99 μmol/plate", "result": "32 ± 8", "unit": "CFU"}, {"measurement": "revertant colonies per plate, TA98", "setting": "S. typhimurium TA98; dose 3.98 μmol/plate", "result": "28 ± 11", "unit": "CFU"}, {"measurement": "revertant colonies per plate, TA102", "setting": "S. typhimurium TA102; dose 0.25 μmol/plate", "result": "256 ± 20", "unit": "CFU"}, {"measurement": "revertant colonies per plate, TA102", "setting": "S. typhimurium TA102; dose 0.50 μmol/plate", "result": "241 ± 10", "unit": "CFU"}, {"measurement": "revertant colonies per plate, TA102", "setting": "S. typhimurium TA102; dose 1.00 μmol/plate", "result": "260 ± 17", "unit": "CFU"}, {"measurement": "revertant colonies per plate, TA102", "setting": "S. typhimurium TA102; dose 1.99 μmol/plate", "result": "264 ± 15", "unit": "CFU"}, {"measurement": "revertant colonies per plate, TA102", "setting": "S. typhimurium TA102; dose 3.98 μmol/plate", "result": "268 ± 12", "unit": "CFU"}, {"measurement": "CYP2E1 mRNA level versus control", "setting": "CYP2E1 mRNA; 4 h, three doses", "result": "no significantly difference"}, {"measurement": "CYP2E1 mRNA expression versus control", "setting": "CYP2E1 mRNA; 12 h", "result": "significantly lowered"}]}
